Results reported in patent US10874687B1 (Atea Pharmaceuticals, Inc., priority 2020, dated 2020).
Values joined by “and” are separate entries in the source; they are usually repeats but may differ in a detail not shown here. Equal entries are not always repeated. Where two headings read alike, the source gives them in different places. Marks after values point to notes of the source that are not given here.

Assays:
[1] = system: human bronchial epithelial cells
[2] = system: human nasal epithelial cells
[3] = Lung, kidney and liver tissue levels in non-human primates after oral Compound 2A; type: in vivo, cynomolgus monkeys; settings: for half-life: after oral Compound 2A 30 mg/kg BID for 3 days; for trough (12 h) tissue level: 12 hours after the last dose of Compound 2A
Procedure: (This corresponds to 55 ng/g (lung), 57 ng/g (kidney), and 43 ng/g (liver)). […] Plasma tough level of Compound 1-7, the surrogate for Compound 1-6 in plasma, was 39 ng/mL.

monkey hepatocytes = experiment: Triphosphate levels in monkey hepatocytes; type: in vitro ADME; settings: 10 μM Compound 1A
human hepatocytes = experiment: Triphosphate levels in human hepatocytes; type: in vitro ADME; settings: for Mean Intracellular Compound 1-6 Concentration: human hepatocytes, 10 μM Compound 1A
[4] = Prediction of human tissue levels of triphosphate from monkey tissue levels
Procedure: Based on the ratio (7.0) of human to monkey concentrations of triphosphate Compound 1-6 as assessed by its in vitro formation in primary hepatocytes, the predicted human tissue level was determined.

[5] = system: human nasal epithelial cells; experiment: Triphosphate levels in human nasal epithelial cells after 8 h exposure and washout
[6] = system: human bronchial epithelial cells; experiment: Triphosphate levels in human bronchial epithelial cells after 8 h exposure and washout; settings: for Mean Intracellular Compound 1-6 Concentration: bronchial cells, 10 μM Compound 1A for 8 h
in vivo = settings: cynomolgus, cynomolgus monkey, po
[7] = Plasma PK of metabolites in non-human primates after oral Compound 2A; settings: cynomolgus, cynomolgus monkey, in vivo, 30 mg/kg
HCoV-229E [8] = experiment: Protection of BHK-21 cells from virus-induced cytopathogenicity (MTT); type: cell-based, human coronavirus; settings: Human coronavirus 229E, read-out: EC50
Procedure: (§1) After a 3-day incubation at 37° C. cell viability was determined by the MTT method as described by Pauwels et al. (J. Virol. Methods 1988, 20, 309-321).
In an initial screening, BHK-21 cells acutely infected with a seasonal human alpha coronavirus, HCoV-229E, were exposed to serial dilutions of Compound 1A. […] No toxicity was detected from either drug.
(§2) BHK-21 cells: Test compounds were dissolved in DMSO at 100 mM and then diluted in Minimum Essential Medium with Earle's salts (MEM-E) containing 1 mM sodium pyruvate and 25 μg/mL kanamycin, supplemented with 10% FBS (growth medium) to final concentrations of 100, 20, 4 and 0.8 μM (two 24-well replica plates each). After BHK-21 cells were grown to confluency in 96-well plates, growth medium was replaced with fresh maintenance medium (growth medium with 1% inactivated FBS in place of 10% FBS) containing serially diluted test compound and HCoV-229E at a multiplicity of infection (MOI) of 0.01. Uninfected cells in the presence of serially diluted compound were used to assess the cytotoxicity of compounds. After a 3-day incubation at 37° C. in a humidified 5% CO2 atmosphere, cell viability was determined by the MTT method (Pauwels, R et al. J. Virol. Methods 20(4):309-321 (1988)).

HCoV = experiment: Protection of MES-1 cells from virus-induced cytopathogenicity (MTT); type: cell-based; settings: unidentified human coronavirus, 72 h, 50% protection of MES-1 cells, day 3 post-infection
Procedure: as §1

[9] = Cytotoxicity in mock infected BHK-21 cells (MTT); type: cell-based, hamster; settings: hamster
Procedure: (§3) To determine the cytotoxicity, cells were seeded at an initial density of 1×10^6 cells/mL in 96 well plates containing Minimum Essential Medium with Earles's salts (MEM-E), L-glutamine, 1 mM sodium pyruvate and 25 mg/L kanamycin, supplemented with 10% fetal bovine serum. Cell cultures were then incubated at 37° C. in a humidified 5% CO2 atmosphere in the absence or presence of serial dilutions of test compounds. Cell viability was determined by the MTT method.
as §2

mock infected BHK cells = experiment: Cytotoxicity in mock infected BHK-21 cells (MTT); type: cell-based, hamster; settings: mock infected BHK cells; MTT; 3 days; Table 2B
Procedure: as §3, §2

[10] = Cytotoxicity in mock infected MES-1 cells (MTT); type: cell-based; settings: Table 3A
Procedure: as §3

[11] = system: mock infected MES-1 cells; experiment: Cytotoxicity in mock infected MES-1 cells (MTT); type: cell-based; settings: 3 days, Table 3B
Procedure: as §3

HCV = settings: HCV-infected subjects, cited from earlier work
SARS-CoV-2 (WA1) = experiment: microbe, parasite or virus in culture; type: cell-based; settings: for EC90: Severe acute respiratory syndrome coronavirus 2, HAE
in vitro = settings: human
HCoV-229E [12] = experiment: microbe, parasite or virus in culture; type: cell-based, human coronavirus alpha-229E; settings: for EC50: Huh-7, read-out: Neutral Red Assay EC50
Huh-7 cells = settings: human
[13] = BHK, 72 h, 50% protection of BHK cells, MTT, day 3 post-infection, Table 2A
[14] = BHK, 72 h, 50% protection of BHK cells, MTT, day 3 post-infection, Table 2B
[15] = mock infected BHK-21 cells, mock infected BHK cells, MTT, 3 days, Table 2A
[16] = read-out: Virus Yield Reduction Assay EC90
[17] = Human coronavirus 229E, Huh-7, read-out: Virus Yield Reduction Assay EC90

In the case of `Nc1ccn([C@@H]2O[C@@](CO)(CCl)[C@@H](O)[C@H]2F)c(=O)n1` [ALS-8112], the “ratio of triphosphate from Compound 1A vs. the named drug” value [1] is reported as 5 and the “ratio of triphosphate from Compound 1A vs. the named drug” value [2] is reported as 3.
For `C[C@@]1(F)[C@H](O)[C@@H](COP(=O)(O)OP(=O)(O)OP(=O)(O)O)O[C@H]1n1cnc2c(=O)[nH]c(N)nc21` [Compound 1-6], the half-life ([3]; monkey kidney tissue) was 8.0 h, the “trough (12 h) tissue level” value ([3]; monkey kidney) was 57 ng/g and the “Mean Intracellular Compound 1-6 Concentration” value ([3]; monkey kidney, 12 h post last dose of Compound 2A) was 0.13 µM. The “Mean Intracellular Compound 1-6 Concentration” value ([3]; monkey kidney, 24 h post last dose of Compound 2A) was 0.032 µM, the “Mean Intracellular Compound 1-6 Concentration” value ([3]; monkey kidney, 48 h post last dose of Compound 2A) was 0.004 µM and the half-life ([3]; monkey liver tissue) was 4.3 h. For the same compound, the “trough (12 h) tissue level” value ([3]; monkey liver) was 43 ng/g, the “Mean Intracellular Compound 1-6 Concentration” value ([3]; monkey liver, 12 h post last dose of Compound 2A) was 0.09 µM and 0.089 µM and the “Mean Intracellular Compound 1-6 Concentration” value ([3]; monkey liver, 24 h post last dose of Compound 2A) was 0.021 µM. The “Mean Intracellular Compound 1-6 Concentration” value ([3]; monkey liver, 48 h post last dose of Compound 2A) was “Not Detected”, the half-life ([3]; monkey lung tissue) was 9.4 h and the “trough (12 h) tissue level” value ([3]; monkey lung) was 55 ng/g. The “Mean Intracellular Compound 1-6 Concentration” value ([3]; monkey lung, 12 h post last dose of Compound 2A) was 0.14 µM, the “Mean Intracellular Compound 1-6 Concentration” value ([3]; monkey lung, 24 h post last dose of Compound 2A) was 0.037 µM and the “Mean Intracellular Compound 1-6 Concentration” value ([3]; monkey lung, 48 h post last dose of Compound 2A) was 0.009 µM. The “triphosphate concentration in the lung compared to the liver” value ([3]; monkey, 12-hour steady-state trough, oral Compound 2A 30 mg/kg BID) was 1.6 fold, the “Mean Intracellular Compound 1-6 Concentration” value (monkey hepatocytes; incubation 2 h) was 2.1 µM and the “Mean Intracellular Compound 1-6 Concentration” value (monkey hepatocytes; incubation 4 h) was 3.1 µM. The “Mean Intracellular Compound 1-6 Concentration” value (monkey hepatocytes; incubation 8 h) was 2.9 µM, the “Mean Intracellular Compound 1-6 Concentration” value (monkey hepatocytes; incubation 24 h) was 1.7 µM and the “ratio of human to monkey hepatocyte triphosphate concentrations” value (human hepatocytes; assessed by AUC0-24 values) was 7 fold and 7.0 fold. The “Mean Intracellular Compound 1-6 Concentration” value (human hepatocytes; incubation 2 h) was 14 µM, the “Mean Intracellular Compound 1-6 Concentration” value (human hepatocytes; incubation 4 h) was 22 µM and the “Mean Intracellular Compound 1-6 Concentration” value (human hepatocytes; incubation 8 h) was 26 µM. For the same compound, the “Mean Intracellular Compound 1-6 Concentration” value (human hepatocytes; incubation 24 h) was 17 µM, the “Predicted Intracellular Triphosphate 1-6 Conc. at 12 hours Post-dose” value [4] was 0.62 µM and 0.91 µM and 0.98 µM and the “predicted human lung intracellular level at trough (12 h) relative to in vitro EC90” value ([4]; 1100 mg LD + 550 mg BID, EC90 against SARS-CoV-2 in HAE cell cultures) was “above the in vitro EC90”. The half-life ([5]; intracellular triphosphate in nasal cells after exposure to 10 μM Compound 1A) was 38 h, the half-life ([5]; intracellular triphosphate in nasal epithelial cells after Compound 1A) was “over 1.5 days” and the half-life ([5]; intracellular triphosphate in nasal epithelial cells after Compound 1A, listed as active triphosphate species) was “greater than 1.5 days”. The “Mean Intracellular Compound 1-6 Concentration” value ([5]; nasal cells, 10 μM Compound 1A for 8 h, 24 h after washout) was 170 µM, the “Mean Intracellular Compound 1-6 Concentration” value ([6]; 15 h after washout) was 560 µM and the “Mean Intracellular Compound 1-6 Concentration” value ([6]; 48 h after washout) was 290 µM. For the same compound, the half-life ([6]; intracellular triphosphate in bronchial cells after exposure to 10 μM Compound 1A) was 39 h, the half-life ([6]; intracellular triphosphate in bronchial epithelial cells after Compound 1A) was “over 1.5 days” and the half-life ([6]; intracellular triphosphate in bronchial epithelial cells after Compound 1A, listed as active triphosphate species) was “greater than 1.5 days”.
Compound `C[C@@]1(F)[C@H](O)[C@@H](CO)O[C@H]1n1cnc2c(=O)[nH]c(N)nc21` [Compound 1-7, 2-amino-9-((2R,3R,4R,5R)-3-fluoro-4-hydroxy-5-(hydroxymethyl)-3-methyltetrahydrofuran-2-yl)-1,9-dihydro-6H-purin-6-one] has a concentration at 12 h (in vivo) of 39 ng/mL, an AUC(0-t) (in vivo; 30 mg/kg) of 0.47 µM·h and a half-life (in vivo; 30 mg/kg) of 17 h. For the same compound, the Cmax [7] was 160 nM and the Tmax [7] was 2 h.
`CNc1nc(N)nc2c1ncn2[C@@H]1O[C@H](CO[P@](=O)(N[C@@H](C)C(=O)OC(C)C)Oc2ccccc2)[C@@H](O)[C@@]1(C)F` [Compound 1B] gave an EC50 (HCoV-229E [8]; [13]) of 2.5 µM, an EC50 (HCoV-229E [8]; [14]) of 2.9 µM and an EC50 (HCoV; Table 3A) of 2 µM. For the same compound, the EC50 (HCoV; Table 3B) was 2.2 µM, the CC50 at 3 days [9, 15] was over 100 µM and the CC50 (mock infected BHK cells) was over 100 µM. For the same compound, the CC50 at 3 days [10] was over 100 µM and the CC50 [11] was over 100 µM.
In the case of `CNc1nc(N)nc2c1ncn2[C@@H]1O[C@H](CO[P@@](=O)(N[C@@H](C)C(=O)OC(C)C)Oc2ccccc2)[C@@H](O)[C@@]1(C)F` [Compound 2A], the efficacy (HCV) is given as “high rate of efficacy” and the safety and tolerability (HCV; up to 12 weeks) is given as “safe and well-tolerated”.
For `O=c1nc(NO)ccn1[C@@H]1O[C@H](CO)[C@@H](O)[C@H]1O` [N^4-hydroxycytidine, reference compound], the “Selectivity Index” value (SARS-CoV-2 (WA1)) was over 5.1, the EC90 (SARS-CoV-2 (WA1); read-out: EC90 of the single replicates) was 4.7 µM and the EC90 (SARS-CoV-2 (WA1); [16]) was 3.9 µM. It also gave a CC50 (in vitro) of over 19 µM.
With `CCN(CC)CCCC(C)Nc1ccnc2cc(Cl)ccc12` (stereo not drawn) [chloroquine, reference compound] the EC50 (HCoV-229E [12]; Human coronavirus 229E) was 8.1 µM, the EC90 (HCoV-229E [12]; [17]) was under 0.05 µM and the CC50 (Huh-7 cells) was 21 µM.
In the case of `CCN(CCO)CCCC(C)Nc1ccnc2cc(Cl)ccc12` (stereo not drawn) [hydroxychloroquine, reference compound], the “Selectivity Index (CC50/EC50)” value (HCoV-229E [12]) is reported as 3.5^c, the EC50 (HCoV-229E [12]; Human coronavirus 229E) is reported as 7.4 µM and the EC90 (HCoV-229E [12]; [17]) is reported as under 0.05 µM. It also gave an EC90 (HCoV-229E [12]; [16]) of under 0.048 µM and a CC50 (Huh-7 cells) of 26 µM.
Compound `CC(C)OC(=O)[C@H](C)N[P@](=O)(OC[C@H]1O[C@@H](n2ccc(=O)[nH]c2=O)[C@](C)(F)[C@@H]1O)Oc1ccccc1` [sofosbuvir, reference compound] has an EC50 (HCoV-229E [8]; [13]) of over 100 µM, an EC50 (HCoV-229E [8]; [14]) of over 100 µM and an EC50 (HCoV-229E [8]; BHK-21, HCoV-229E in BHK-21, dye staining, average of 2 experiments, Table 5) of over 100 µM. It also gave an EC50 (HCoV; Table 3A) of over 100 µM, an EC50 (HCoV; Table 3B) of over 100 µM and a CC50 at 3 days [9, 15] of over 100 µM. It also gave a CC50 at 3 days ([9]; uninfected BHK-21 cells, BHK-21, Table 5) of over 100 µM, a CC50 (mock infected BHK cells) of over 100 µM and a CC50 at 3 days [10] of over 100 µM. The CC50 [11] was over 100 µM.
